Data set [1] in a line: Protein binding in rat plasma. It is filed as ADME, cell-free. Conditions: read-out: PPB (converted).
Data set [2] has as its target Sodium channel protein type 5 subunit alpha (Homo sapiens, UniProt Q14524). Put plainly: Inhibition of Nav1.5 (unknown origin).
Data set [3] concerns the target Sodium-dependent serotonin transporter (Homo sapiens) (UniProt P31645). Put plainly: Inhibition of 5-HTT (unknown origin) at 10 uM.
A short description of data set [4]: Cytotoxicity against human liver-microtissues upto 100 uM. The format is toxicity, tissue-based.
The target of data set [5] is Voltage-dependent L-type calcium channel subunit alpha-1C (Homo sapiens, UniProt Q13936). Put plainly: Inhibition of Cav1.2 (unknown origin).
Chain of Voltage-dependent L-type calcium channel subunit alpha-1C (Q13936 whole entry): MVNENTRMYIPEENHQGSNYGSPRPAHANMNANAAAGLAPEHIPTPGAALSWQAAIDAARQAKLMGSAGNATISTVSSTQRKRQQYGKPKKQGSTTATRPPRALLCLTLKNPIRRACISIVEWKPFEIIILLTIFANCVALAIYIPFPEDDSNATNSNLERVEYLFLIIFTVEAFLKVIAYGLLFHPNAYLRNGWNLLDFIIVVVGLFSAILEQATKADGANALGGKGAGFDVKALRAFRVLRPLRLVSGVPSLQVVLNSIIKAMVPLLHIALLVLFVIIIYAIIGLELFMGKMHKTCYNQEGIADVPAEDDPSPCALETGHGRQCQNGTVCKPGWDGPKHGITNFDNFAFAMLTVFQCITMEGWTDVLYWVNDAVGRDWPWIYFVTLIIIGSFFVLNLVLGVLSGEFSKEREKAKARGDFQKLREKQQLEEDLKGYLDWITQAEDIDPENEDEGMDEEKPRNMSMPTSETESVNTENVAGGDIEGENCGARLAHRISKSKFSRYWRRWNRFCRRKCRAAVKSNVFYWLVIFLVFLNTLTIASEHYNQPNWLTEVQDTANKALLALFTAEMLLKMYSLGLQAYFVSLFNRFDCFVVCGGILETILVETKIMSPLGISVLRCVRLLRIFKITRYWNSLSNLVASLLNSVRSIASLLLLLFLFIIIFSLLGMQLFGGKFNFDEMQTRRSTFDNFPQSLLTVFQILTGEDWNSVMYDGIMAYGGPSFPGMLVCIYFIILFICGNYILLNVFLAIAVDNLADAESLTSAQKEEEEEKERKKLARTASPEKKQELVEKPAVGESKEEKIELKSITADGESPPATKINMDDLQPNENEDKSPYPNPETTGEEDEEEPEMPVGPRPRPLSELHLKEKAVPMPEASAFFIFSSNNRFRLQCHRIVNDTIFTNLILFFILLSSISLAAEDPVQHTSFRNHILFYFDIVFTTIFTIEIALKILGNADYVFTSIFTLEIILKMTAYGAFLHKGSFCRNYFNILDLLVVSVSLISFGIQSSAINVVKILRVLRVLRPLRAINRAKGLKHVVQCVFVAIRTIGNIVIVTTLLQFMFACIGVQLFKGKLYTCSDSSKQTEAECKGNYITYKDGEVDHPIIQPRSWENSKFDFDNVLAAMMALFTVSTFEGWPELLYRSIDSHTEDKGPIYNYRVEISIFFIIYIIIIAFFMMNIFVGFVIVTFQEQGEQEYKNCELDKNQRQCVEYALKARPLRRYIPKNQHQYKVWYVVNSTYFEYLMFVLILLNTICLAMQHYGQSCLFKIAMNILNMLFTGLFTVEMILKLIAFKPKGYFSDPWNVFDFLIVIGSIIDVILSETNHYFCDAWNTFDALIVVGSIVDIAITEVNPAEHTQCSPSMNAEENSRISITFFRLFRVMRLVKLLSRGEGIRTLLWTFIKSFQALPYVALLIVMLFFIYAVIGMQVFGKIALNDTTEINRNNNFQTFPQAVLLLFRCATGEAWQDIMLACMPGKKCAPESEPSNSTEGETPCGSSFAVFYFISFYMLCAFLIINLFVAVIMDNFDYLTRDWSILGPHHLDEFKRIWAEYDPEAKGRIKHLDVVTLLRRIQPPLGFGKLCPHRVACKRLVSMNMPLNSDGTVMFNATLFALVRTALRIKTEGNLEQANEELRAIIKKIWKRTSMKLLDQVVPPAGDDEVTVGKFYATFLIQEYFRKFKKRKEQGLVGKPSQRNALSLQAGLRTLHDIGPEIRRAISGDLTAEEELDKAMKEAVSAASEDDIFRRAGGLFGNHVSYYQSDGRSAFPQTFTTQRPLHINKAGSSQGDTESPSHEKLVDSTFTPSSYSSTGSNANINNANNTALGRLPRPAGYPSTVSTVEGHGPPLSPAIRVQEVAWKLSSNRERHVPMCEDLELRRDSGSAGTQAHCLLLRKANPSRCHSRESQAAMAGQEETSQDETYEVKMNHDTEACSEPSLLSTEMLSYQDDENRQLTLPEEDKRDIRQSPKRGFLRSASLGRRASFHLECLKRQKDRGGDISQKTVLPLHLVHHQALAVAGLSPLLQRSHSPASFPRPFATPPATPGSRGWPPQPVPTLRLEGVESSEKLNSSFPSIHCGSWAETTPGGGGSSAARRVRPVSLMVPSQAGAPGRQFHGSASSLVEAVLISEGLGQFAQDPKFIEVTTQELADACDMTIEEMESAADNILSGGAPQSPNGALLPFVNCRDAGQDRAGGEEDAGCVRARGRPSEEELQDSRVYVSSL
Data set [6] in a line: Selectivity ratio of IC50 for inhibition of KHS1 (unknown origin) to Ki for inhibition of human full length HPK1-T165E/S171E mutant expressed in baculovirus expression system.
Data set [7] is described as follows: Half life in Beagle dog at 0.5 mg/kg, po or 0.5 mg/kg, iv measured for 24 hrs by LC/MS/MS analysis. Particulars: in vivo. The format is ADME, organism-based, Canis lupus familiaris.
A short description of data set [8]: Oral bioavailability in Sprague-Dawley rat. The format is ADME, organism-based. Conditions: in vivo.
Data set [9] is described as follows: Oral bioavailability in cynomolgus monkey at 0.5 mg/kg measured for 24 hrs by LC/MS/MS analysis. It is filed as ADME, organism-based, Macaca fascicularis. Particulars: in vivo.
Data set [10] is described as follows: Selectivity ratio of IC50 for inhibition of GLK (unknown origin) to Ki for inhibition of human full length HPK1-T165E/S171E mutant expressed in baculovirus expression system.
Data set [11] is described as follows: Oral bioavailability in Beagle dog at 0.5 mg/kg measured for 24 hrs by LC/MS/MS analysis. It is filed as ADME, organism-based, Canis lupus familiaris. Conditions: in vivo.
The species entered for another data set is Homo sapiens. Put plainly: Inhibition of benzodiazepine receptor (unknown origin) at 10 uM.
Data set [12] can be described thus: Selectivity ratio of IC50 for inhibition of MAP4K4 (unknown origin) to Ki for inhibition of human full length HPK1-T165E/S171E mutant expressed in baculovirus expression system.
Data set [13] can be described thus: Half life in cynomolgus monkey at 0.5 mg/kg, po or 0.5 mg/kg, iv by measured for 24 hrs LC/MS/MS analysis. The format is ADME, organism-based, Macaca fascicularis. Conditions: in vivo.
Data set [14] in a line: Selectivity ratio of IC50 for inhibition of MINK1 (unknown origin) to Ki for inhibition of human full length HPK1-T165E/S171E mutant expressed in baculovirus expression system.
The nature of data set [15]: Protein binding in mouse plasma. The format is ADME, cell-free. Particulars: read-out: PPB (converted).
The target of the next data set is Misshapen-like kinase 1 (Homo sapiens, UniProt Q8N4C8). Put plainly: Inhibition of MINK1 (unknown origin).
Data set [16] is described as follows: Clearance in Sprague-Dawley rat at 0.5 mg/kg, iv measured for 8 hrs by LC-MS/MS analysis. Particulars: in vivo. It is filed as ADME, organism-based.
A short description of data set [17]: Protein binding in dog plasma. It is filed as ADME, cell-free, Canis lupus familiaris. Particulars: read-out: PPB (converted).
In data set [18] the target is T1, Mitogen-activated protein kinase kinase kinase kinase 2 (Homo sapiens, UniProt Q12851).
T1 sequence (Q12851 whole entry): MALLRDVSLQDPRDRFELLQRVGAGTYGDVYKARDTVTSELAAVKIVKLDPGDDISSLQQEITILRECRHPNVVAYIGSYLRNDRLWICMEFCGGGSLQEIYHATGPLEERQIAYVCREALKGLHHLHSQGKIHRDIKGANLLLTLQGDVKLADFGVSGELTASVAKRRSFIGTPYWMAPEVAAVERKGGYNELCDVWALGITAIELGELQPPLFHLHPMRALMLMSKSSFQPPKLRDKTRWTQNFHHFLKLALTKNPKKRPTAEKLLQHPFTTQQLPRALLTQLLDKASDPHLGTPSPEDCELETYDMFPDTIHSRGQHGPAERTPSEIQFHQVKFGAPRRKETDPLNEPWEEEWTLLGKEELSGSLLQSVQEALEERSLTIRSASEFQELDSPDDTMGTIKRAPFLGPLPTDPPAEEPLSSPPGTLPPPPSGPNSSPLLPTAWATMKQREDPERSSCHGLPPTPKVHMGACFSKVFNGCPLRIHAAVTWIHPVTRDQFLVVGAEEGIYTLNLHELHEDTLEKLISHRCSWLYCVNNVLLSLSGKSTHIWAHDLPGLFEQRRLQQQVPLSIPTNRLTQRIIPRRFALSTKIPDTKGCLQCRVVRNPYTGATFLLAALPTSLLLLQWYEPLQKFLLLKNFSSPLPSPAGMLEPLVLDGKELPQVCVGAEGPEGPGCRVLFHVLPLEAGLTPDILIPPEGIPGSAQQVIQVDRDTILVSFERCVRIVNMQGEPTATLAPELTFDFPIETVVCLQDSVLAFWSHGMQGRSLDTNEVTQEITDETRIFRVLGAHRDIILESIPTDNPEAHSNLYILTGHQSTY
The experiment in a line: Inhibition of GCK (unknown origin).

The nature of data set [19]: Inhibition of KHS1 (unknown origin). The arrangement: species or system Homo sapiens.
The target in data set [20] is T2, Mitogen-activated protein kinase kinase kinase kinase 3 (Homo sapiens, UniProt Q8IVH8).
T2 sequence (Q8IVH8 whole entry): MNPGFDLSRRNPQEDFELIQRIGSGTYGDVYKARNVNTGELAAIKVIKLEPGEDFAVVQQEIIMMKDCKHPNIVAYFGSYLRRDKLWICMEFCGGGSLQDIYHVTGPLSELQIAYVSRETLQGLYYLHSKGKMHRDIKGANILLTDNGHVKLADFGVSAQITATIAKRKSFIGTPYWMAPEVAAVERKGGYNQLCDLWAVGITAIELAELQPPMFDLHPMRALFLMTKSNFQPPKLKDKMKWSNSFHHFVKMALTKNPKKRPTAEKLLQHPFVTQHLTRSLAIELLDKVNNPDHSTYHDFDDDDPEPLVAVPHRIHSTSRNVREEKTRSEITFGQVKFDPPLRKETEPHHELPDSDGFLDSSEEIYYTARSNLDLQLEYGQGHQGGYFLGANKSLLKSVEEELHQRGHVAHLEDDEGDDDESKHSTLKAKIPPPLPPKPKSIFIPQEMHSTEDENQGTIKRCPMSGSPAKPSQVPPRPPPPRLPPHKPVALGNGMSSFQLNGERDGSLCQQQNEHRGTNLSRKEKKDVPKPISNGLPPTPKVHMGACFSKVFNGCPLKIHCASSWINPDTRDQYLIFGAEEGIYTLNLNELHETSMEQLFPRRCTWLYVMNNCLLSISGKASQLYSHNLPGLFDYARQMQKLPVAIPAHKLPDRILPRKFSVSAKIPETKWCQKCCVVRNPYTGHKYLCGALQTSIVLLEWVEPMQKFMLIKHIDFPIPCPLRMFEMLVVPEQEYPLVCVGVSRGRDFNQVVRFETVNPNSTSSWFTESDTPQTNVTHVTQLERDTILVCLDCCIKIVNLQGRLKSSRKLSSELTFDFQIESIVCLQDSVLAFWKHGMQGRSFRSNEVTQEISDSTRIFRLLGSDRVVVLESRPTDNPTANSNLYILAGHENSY
Put plainly: Inhibition of GLK (unknown origin).

Data set [21] in a line: Inhibition of human full length HPK1-T165E/S171E mutant expressed in baculovirus expression system assessed as inhibition of SLP76 phosphorylation using biotinylated SLP76 as substrate preincubated for 30 mins followed by incubation with substrate in presence of ATP and measured for 60 mins by HTRF assay. In general terms: In TR-FRET formats the signal depends on donor and acceptor labels being close together.

Data set [22] can be described thus: Volume of distribution at steady state in cynomolgus monkey at 0.5 mg/kg, po or 0.5 mg/kg, iv measured for 24 hrs by LC/MS/MS analysis. Particulars: in vivo. It is filed as ADME, organism-based, Macaca fascicularis.

Consider one compound from ChEMBL document CHEMBL6127064, “Discovery of GNE-6893, a Potent, Selective, Orally Bioavailable Small Molecule Inhibitor of HPK1” (ACS Med Chem Lett, 2024).

SMILES strings stand for the structures. Some results are limits rather than exact numbers.

Chain of Sodium-dependent serotonin transporter (Homo sapiens) (P31645 whole entry, looked up): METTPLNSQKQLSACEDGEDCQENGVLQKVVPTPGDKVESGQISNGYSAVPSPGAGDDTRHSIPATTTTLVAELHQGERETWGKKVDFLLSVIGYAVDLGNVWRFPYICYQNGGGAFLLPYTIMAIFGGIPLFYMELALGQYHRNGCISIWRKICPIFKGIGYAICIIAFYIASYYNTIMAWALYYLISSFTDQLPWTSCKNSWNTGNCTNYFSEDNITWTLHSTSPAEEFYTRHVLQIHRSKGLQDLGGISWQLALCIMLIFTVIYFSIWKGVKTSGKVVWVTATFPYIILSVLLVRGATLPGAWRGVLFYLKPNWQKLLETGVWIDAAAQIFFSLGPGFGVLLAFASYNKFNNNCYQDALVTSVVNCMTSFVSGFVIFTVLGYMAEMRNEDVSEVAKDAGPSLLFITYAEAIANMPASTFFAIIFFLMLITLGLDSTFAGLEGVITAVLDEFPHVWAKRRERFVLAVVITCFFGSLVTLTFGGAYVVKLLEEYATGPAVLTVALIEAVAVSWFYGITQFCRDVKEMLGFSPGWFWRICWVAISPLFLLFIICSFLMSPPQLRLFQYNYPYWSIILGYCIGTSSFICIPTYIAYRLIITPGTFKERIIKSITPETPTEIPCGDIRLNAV
Chain of Sodium channel protein type 5 subunit alpha (Q14524 whole entry): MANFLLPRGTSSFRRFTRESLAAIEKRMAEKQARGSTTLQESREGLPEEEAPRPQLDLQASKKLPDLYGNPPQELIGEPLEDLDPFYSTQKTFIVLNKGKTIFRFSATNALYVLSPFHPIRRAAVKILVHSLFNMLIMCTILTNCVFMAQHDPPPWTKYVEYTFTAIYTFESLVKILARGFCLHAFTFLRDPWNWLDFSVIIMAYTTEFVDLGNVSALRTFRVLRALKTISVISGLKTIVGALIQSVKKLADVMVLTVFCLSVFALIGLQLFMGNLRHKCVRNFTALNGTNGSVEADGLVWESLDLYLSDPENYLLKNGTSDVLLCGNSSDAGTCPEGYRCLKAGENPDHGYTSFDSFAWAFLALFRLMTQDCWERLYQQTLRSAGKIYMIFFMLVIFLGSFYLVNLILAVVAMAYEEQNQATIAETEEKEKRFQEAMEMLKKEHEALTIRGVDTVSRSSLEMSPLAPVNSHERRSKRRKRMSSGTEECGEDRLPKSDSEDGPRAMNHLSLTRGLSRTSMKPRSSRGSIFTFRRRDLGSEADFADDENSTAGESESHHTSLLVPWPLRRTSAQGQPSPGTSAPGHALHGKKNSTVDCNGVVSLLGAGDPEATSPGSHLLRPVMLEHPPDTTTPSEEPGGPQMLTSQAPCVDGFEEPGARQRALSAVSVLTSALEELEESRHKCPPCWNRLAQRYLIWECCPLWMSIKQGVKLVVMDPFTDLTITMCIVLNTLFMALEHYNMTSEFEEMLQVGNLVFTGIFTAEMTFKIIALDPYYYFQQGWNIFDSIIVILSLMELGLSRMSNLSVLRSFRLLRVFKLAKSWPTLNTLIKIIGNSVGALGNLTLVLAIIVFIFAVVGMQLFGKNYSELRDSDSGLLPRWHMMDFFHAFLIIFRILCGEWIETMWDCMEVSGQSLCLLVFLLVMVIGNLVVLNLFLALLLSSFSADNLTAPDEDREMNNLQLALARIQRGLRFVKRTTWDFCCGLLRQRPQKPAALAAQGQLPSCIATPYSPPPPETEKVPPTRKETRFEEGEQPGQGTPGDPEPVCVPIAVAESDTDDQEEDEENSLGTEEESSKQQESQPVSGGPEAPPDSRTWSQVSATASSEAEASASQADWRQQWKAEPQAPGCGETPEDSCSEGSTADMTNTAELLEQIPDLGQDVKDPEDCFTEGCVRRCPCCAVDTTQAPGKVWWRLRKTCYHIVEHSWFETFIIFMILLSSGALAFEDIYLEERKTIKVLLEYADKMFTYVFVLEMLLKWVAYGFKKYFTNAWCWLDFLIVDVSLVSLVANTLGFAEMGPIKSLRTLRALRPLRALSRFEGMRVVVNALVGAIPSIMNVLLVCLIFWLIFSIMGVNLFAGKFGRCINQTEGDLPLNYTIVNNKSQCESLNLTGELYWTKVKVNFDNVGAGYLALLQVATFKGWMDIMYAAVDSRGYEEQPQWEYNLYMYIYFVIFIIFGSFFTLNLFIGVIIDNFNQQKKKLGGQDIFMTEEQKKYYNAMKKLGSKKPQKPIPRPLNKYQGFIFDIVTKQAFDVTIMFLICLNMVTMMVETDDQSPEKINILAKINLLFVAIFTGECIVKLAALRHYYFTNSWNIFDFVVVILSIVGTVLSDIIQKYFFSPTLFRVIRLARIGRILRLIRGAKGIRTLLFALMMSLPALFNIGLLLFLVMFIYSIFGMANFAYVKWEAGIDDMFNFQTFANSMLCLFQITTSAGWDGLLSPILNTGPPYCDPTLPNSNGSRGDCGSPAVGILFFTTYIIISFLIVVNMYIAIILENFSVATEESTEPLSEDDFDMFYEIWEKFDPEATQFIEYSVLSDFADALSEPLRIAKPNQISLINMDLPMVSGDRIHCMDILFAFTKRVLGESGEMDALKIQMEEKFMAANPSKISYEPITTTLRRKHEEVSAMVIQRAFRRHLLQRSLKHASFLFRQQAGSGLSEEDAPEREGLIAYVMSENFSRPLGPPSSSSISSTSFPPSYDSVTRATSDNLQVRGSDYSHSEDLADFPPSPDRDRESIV

Turning to `Cc1c(-c2cc3cc(NC(=O)O[C@H]4COC[C@@H]4C)ncc3c(N)c2F)cnc2c1NCCO2`, the fraction unbound was 0.094 in data set [1], 0.053 in data set [15] and 0.142 in data set [17]. Moreover, the concentration for half-maximal inhibition (IC50) in data set [2] was more than 10000 nM; in data set [5] it was more than 10000 nM; at Misshapen-like kinase 1, 3.6 nM; in [18] it was 1.3 nM; in data set [19], 3.1 nM; in data set [20] it was 0.72 nM. Also, the inhibition (in data set [3]; in the data set listed under Homo sapiens) was 50% throughout. For the same compound, the Activity entry in data set [4] is listed as “Non-Toxic”. Moreover, the Ratio was more than 170 in [6], more than 40 in data set [10], more than 180 in data set [12] and more than 200 in [14]. Also, the half-life in data set [7] was 2.5 h; in [13] it was 1.9 h. Besides, the results for the bioavailability in data set [8], in data set [9] and in data set [11] were 30%, 53% and 46%, respectively. The clearance in data set [16] came to 39 mL/min/kg. Moreover, in data set [21], the inhibition constant Ki is less than 0.019 nM. Also, in [22], the Vdss was 1.9 L/kg.

By IC50 is commonly meant the point on the concentration scale where inhibition reaches its midpoint. What is called inhibition is the change of the read-out against control, counted positive when it falls. The half-life is the time in which the quantity being followed falls by half. Broadly, the bioavailability is dose-corrected exposure relative to a reference, in per cent. Usually clearance stands for the volume of plasma or blood freed of the substance per unit of time. As a reminder, the Ki is the equilibrium dissociation constant of an inhibitor or competing ligand from its target.
